What was measured:
uterus = assay: Wet uterine weight in ovariectomized rats (post-menopausal model); format: in vivo, female Sprague Dawley rats (ovariectomized); settings: oral, OVX rats; for change in vivo at 0.01 mg/kg / change in vivo at 0.1 mg/kg / change in vivo at 1 mg/kg / change in vivo at 10 mg/kg: Rattus norvegicus, 96 h, daily for 4 days, read-out: Uterine Weight (% increase vs. OVX)
Experimental: In the examples illustrating the methods, a post-menopausal model was used in which effects of different treatments upon circulating lipids were determined.
(§1) Seventy-five day old female Sprague Dawley rats (weight range of 200 to 225 g) were obtained from Charles River Laboratories (Portage, Mich.). The animals were either bilaterally ovariectomized (OVX) or exposed to a Sham surgical procedure at Charles River Laboratories, and then shipped after one week. Upon arrival, they were housed in metal hanging cages in groups of 3 or 4 per cage and had ad libitum access to food (calcium content approximately 0.5%) and water for one week. Room temperature was maintained at 22.2°±1.7° C. with a minimum relative humidity of 40%. The photoperiod in the room was 12 hours light and 12 hours dark.
(§2) Dosing Regimen Tissue Collection. After a one week acclimation period (therefore, two weeks post-OVX) daily dosing with test compound was initiated. 17a-ethynyl estradiol or the test compound were given orally, unless otherwise stated, as a suspension in 1% carboxymethylcellulose or dissolved in 20% cyclodextrin. Animals were dosed daily for 4 days. Following the dosing regimen, animals were weighed and anesthetized with a ketamine: Xylazine (2:1, V:V) mixture and a blood sample was collected by cardiac puncture. The animals were then sacrificed by asphyxiation with CO2, the uterus was removed through a midline incision, and a wet uterine weight was determined.
(§3) The data presented in the Tables 1 below reflects the response of 5 to 6 rats per treatment.

[1] = test system: Uterine Eosinophil Peroxidase (EPO); assay: Uterine Eosinophil Peroxidase (EPO) Assay; format: in vivo, female Sprague Dawley rats (ovariectomized); set-up: Uterine EPO (V. max): unit not given here; settings: oral, daily for 4 days, OVX rats; for Uterine EPO (V. max): 450 nm
Source text: as §1, §2
Uterine Eosinophil Peroxidase (EPO) Assay. Uteri were kept at 4° C. until time of enzymatic analysis. The uteri were then homogenized in 50 volumes of 50 mM Tris buffer (pH-8.0) containing 0.005% Triton X-100. Upon addition of 0.01% hydrogen peroxide and 10 mM O-phenylenediamine (final concentrations) in Tris buffer, increase in absorbance was monitored for one minute at 450 nm. The presence of eosonophils in the uterus is an indication of estrogenic activity of a compound. The maximal velocity of a 15 second interval was determined over the initial, linear portion of the reaction curve.
As is expressed in the below data, estrogenicity also was assessed by evaluating the adverse response of eosinophil infiltration into the uterus.
as §3

Serum Cholesterol = assay: Serum cholesterol analysis in ovariectomized rats; format: in vivo, female Sprague Dawley rats (ovariectomized); settings: oral, OVX rats; for inhibition in vivo at 0.01 mg/kg / inhibition in vivo at 0.1 mg/kg / inhibition in vivo at 1 mg/kg / inhibition in vivo at 10 mg/kg: Rattus norvegicus, 96 h, daily for 4 days, read-out: Serum Cholesterol (% decrease vs. OVX)
Source text: as §1, §2
Cholesterol Analysis. Blood samples were allowed to clot at room temperature for 2 hours, and serum was obtained following centrifugation for 10 minutes at 3000 rpm. Serum cholesterol was determined using a Boehringer Mannheim Diagnostics high performance cholesterol assay. Briefly the cholesterol was oxidized to cholest-4-en-3-one and hydrogen peroxide. The hydrogen peroxide was then reacted with phenol and 4-aminophenazone in the presence of peroxidase to produce a p-quinone imine dye, which was read spectrophotemetrically at 500 nm. Cholesterol concentration was then calculated against a standard curve. The entire assay was automated using a Biomek Automated Workstation.
as §3

[2] = test system: MCF-7 breast adenocarcinoma cells; assay: MCF-7 Proliferation Assay (tritiated thymidine); format: cell-based; settings: Homo sapiens, MCF7; MCF-7 cells, 48 hours, tritiated thymidine pulse 4 hours
Experimental: MCF-7 breast adenocarcinoma cells (ATCC HTB 22) were maintained in MEM (minimal essential medium, phenol red-free, Sigma, St. Louis, Mo.) supplimented with 10% fetal bovine serum […] (V/V), L-glutamine (2 mM), sodium pyruvate (1 mM), HEPES {(N-[2-hydroxyethyl]piperazine-N'-[2-ethanesulfonic acid]10 mM)}, non-essential amino acids and bovine insulin (1 ug/mL) (maintenance medium). Ten days prior to assay, MCF-7 cells were switched to maintenance medium supplemented with 10% dextran coated charcoal stripped fetal bovine serum (DCC-FBS) assay medium) in place of 10% FBS to deplete internal stores of steroids. MCF-7 cells were removed from maintenance flasks using cell dissociation medium (Ca++/Mg++ free HBSS (phenol red-free) supplemented with 10 mM HEPES and 2 mM EDTA). Cells were washed twice with assay medium and adjusted to 80,000 cells/mL. Approximately […] (8,000 cells) were added to flat-bottom microculture wells (Costar 3596) and incubated at 37° C. in a 5% CO2 humidified incubator for 48 hours to allow for cell adherence and equilibration after transfer. Serial dilutions of drugs or DMSO as a diluent control were prepared in assay medium and […] to triplicate microcultures followed by […] assay medium for a final volume of […]. After an additional 48 hours at 37° C. in a 5% CO2 humidified incubator, microcultures were pulsed with tritiated thymidine (1 uCi/well) for 4 hours. Cultures were terminated by freezing at -70° C. for 24 hours followed by thawing and harvesting of microcultures using a Skatron Semiautomatic Cell Harvester. Samples were counted by liquid scintillation using a Wallac BetaPlace b counter. Results in Table 3 below show the IC50 for certain compounds of the present invention.

Distal Femur Metaphysis = assay: Osteoporosis test, distal femur metaphysis X-ray image analysis; format: in vivo, female Sprague Dawley rats (ovariectomized); settings: oral; for Distal Femur Metaphysis (X-ray Image Analysis-Gray Score), percent protection relative to ovariectomy: daily for 35 days, in 20% hydroxypropyl b-cyclodextrin
Source text: Seventy-five day old female Sprague Dawley rats (weight range of 200 to 225 g) were obtained from Charles River Laboratories (Portage, Mich.). The animals were either bilaterally ovariectomized (OVX) or exposed to a Sham surgical procedure at Charles River Laboratories, and then shipped after one week. Upon arrival, they were housed in metal hanging cages in groups of 3 or 4 per cage and had ad libitum access to food (calcium content approximately 0.5%) and water for one week. Room temperature was maintained at 22.2°±1.7° C. with a minimum relative humidity of 40%. The photoperiod in the room was 12 hours light and 12 hours dark. Following the General Preparation Procedure, infra, the rats were treated daily for 35 days (6 rats per treatment group) and sacrificed by carbon dioxide asphyxiation on the 36th day. The 35 day time period was sufficient to allow maximal reduction in bone density, measured as described herein. At the time of sacrifice, the uteri were removed, dissected free of extraneous tissue, and the fluid contents were expelled before determination of wet weight in order to confirm estrogen deficiency associated with complete ovariectomy. […] The uteri were then placed in 10% neutral buffered formalin to allow for subsequent histological analysis. The right femurs were excised and digitilized x-rays generated and analyzed by an image analysis program (NIH image) at the distal metaphysis. The proximal aspect of the tibiae from these animals were also scanned by quantitative computed tomography. In accordance with the above procedures, compounds of the present invention and ethynyl estradiol (EE2) in 20% hydroxypropyl b-cyclodextrin were orally administered to test animals. Distal femur metaphysis data presented in Tables 2 and 3 below are the results of formula I compound treatments compared to intact and ovariectomized test animals. Results are reported as percent protection relative to ovariectomy.

| IC50 [2] [nM] | SMILES | change in vivo at 0.1 mg/kg (uterus) [%] | change in vivo at 1 mg/kg (uterus) [%] | Uterine EPO (V. max) ([1]; 0.1 mg/kg) | Uterine EPO (V. max) ([1]; 1.0 mg/kg) | inhibition in vivo at 0.1 mg/kg (Serum Cholesterol) [%] | inhibition in vivo at 1 mg/kg (Serum Cholesterol) [%] | change in vivo at 10 mg/kg (uterus) [%] | Uterine EPO (V. max) ([1]; 10.0 mg/kg) | inhibition in vivo at 10 mg/kg (Serum Cholesterol) [%] | also measured |
| --- | --- | --- | --- | --- | --- | --- | --- | --- | --- | --- | --- |
|  | Oc1ccc2c(c1)OC(c1ccc(OCCN3CCCC3)cc1)c1c-2sc2cc(O)ccc12 (stereo not drawn) [Example 8, 3,9-Dihydroxy-6-[4-[2-(1-pyrrolidinyl)ethoxy]phenyl]-6-H-[1]benzothieno[3,2-c][1]benzopyran] | 27.4 | 27.2 | 4.8 | 4.8 | 38.5 | 68 |  |  |  | change in vivo at 0.01 mg/kg (uterus): 10.2%; Uterine EPO (V. max) ([1]; 0.01 mg/kg): 2.1; inhibition in vivo at 0.01 mg/kg (Serum Cholesterol): 50.5% |
| 1 | Oc1ccc2c(c1)CN(c1ccc(OCCN3CCCCC3)cc1)c1c-2ccc2cc(O)ccc12 [Example 14, 2,8-Dihydroxy-5-[4-[2-(1-piperidinyl)ethoxy]phenyl]-6H-benzo[c]phenanthridine] | 60 | 49.1 | 5.4 | 36.0 | 59.5 | 60.7 |  |  |  | change in vivo at 0.01 mg/kg (uterus): -0.6%; Uterine EPO (V. max) ([1]; 0.01 mg/kg): 2.7; inhibition in vivo at 0.01 mg/kg (Serum Cholesterol): 24.8% |
| 500 | O=S(=O)(Oc1ccc2c(c1)OC(c1ccc(OCCN3CCCCC3)cc1)c1c-2sc2cc(OS(=O)(=O)C(F)(F)F)ccc12)C(F)(F)F (stereo not drawn) [Example 6, 3,9-Bis(trifluoromethanesulfonyloxy)-6-[4-[2-(1-piperidinyl)ethoxy]phenyl]-6-H-[1]benzothieno[3,2-c][1]benzopyran] | 23 | 6.4 | 4.2 | 1.8 | -2.5 | 9.9 | 50 | 3.6 | -11.4 |  |
|  | CN(C)CCOc1ccc(C2Oc3cc(O)ccc3-c3sc4cc(O)ccc4c32)cc1 (stereo not drawn) [Example 9, 3,9-Dihydroxy-6-[4-(2-dimethylaminoethoxy)phenyl]-6-H-[1]benzothieno[3,2-c][1]benzopyran] | 77.8 |  | 52.2 |  | 40.1 |  |  |  |  |  |
|  | Oc1ccc2c(c1)OC(c1ccc(OCCN3CCCCC3)cc1)c1c-2ccc2cc(O)ccc12 (stereo not drawn) [Example 11b, 2,8-Dihydroxy-5-[4-[2-(1-piperidinyl)ethoxy]phenyl]-5H-benzo[b]naphtho[2,1-d]pyran] | 13.6 | 7.6 | 9.3 | 12.0 | 66.4 | 73.9 | -4.1 | 7.8 | 61.4 | Distal Femur Metaphysis (X-ray Image Analysis-Gray Score), percent protection relative to ovariectomy (Distal Femur Metaphysis; 0.01 mg/kg): 45.6%; Distal Femur Metaphysis (X-ray Image Analysis-Gray Score), percent protection relative to ovariectomy (Distal Femur Metaphysis; 0.1 mg/kg): 38.5%; Distal Femur Metaphysis (X-ray Image Analysis-Gray Score), percent protection relative to ovariectomy (Distal Femur Metaphysis; 1.0 mg/kg): 58.5%; Distal Femur Metaphysis (X-ray Image Analysis-Gray Score), percent protection relative to ovariectomy (Distal Femur Metaphysis; 10.0 mg/kg): 37.3% |
|  | c1ccc2c(c1)OC(c1ccc(OCCN3CCCCC3)cc1)c1c-2sc2ccccc12 (stereo not drawn) [Example 7, 6-[4-[2-(1-piperidinyl)ethoxy]phenyl]-6-H-[1]benzothieno[3,2-c][1]benzopyran] | 28.9 | 31.2 | 4.8 | 6.6 | 39.8 | 65.5 | 14.7 | 3.6 | 54 |  |
| 100 | COc1ccc2c(c1)OC(c1ccc(OCCN3CCCCC3)cc1)c1c-2sc2cc(OC)ccc12 (stereo not drawn) [Example 2, 3,9-Dimethoxy-6-[4-[2-(1-piperidinyl)ethoxy]phenyl]-6-H-[1]benzothieno[3,2-c][1]benzopyran] |  |  |  |  |  |  |  |  |  |  |
|  | C#CC1(O)CCC2C3CCc4cc(O)ccc4C3CCC21C (stereo not drawn) [EE2, 17α-ethynyl estradiol, reference compound] | 86.3 |  | 116.4 |  | 81.4 |  |  |  |  | Uterine weight (result in words) (uterus; EE2 at 0.1 mg/kg/day): uterine weight was substantially greater than the uterine weight of ovariectomized test animals; Eosinophil infiltration into the uterus (stromal layer) [1]: substantial, expected increase in eosinophil infiltration; Serum cholesterol (result in words) (Serum Cholesterol; EE2 at 0.1 mg/kg/day): caused a decrease in serum cholesterol; Distal Femur Metaphysis (X-ray Image Analysis-Gray Score), percent protection relative to ovariectomy (Distal Femur Metaphysis; 0.1 mg/kg): 62.4%; Prevention of bone loss (result in words) (Distal Femur Metaphysis; OVX rats, 35 days): prevented this loss |

Source: patent publication US5726186A, “Pentacyclic compounds, intermediates, processes, compositions, and methods” (Eli Lilly and Company, priority 1996, dated 1998)
